Results reported in US20170333390A1, “PHYTOCHEMICAL COMPOSITIONS INCLUDING SESAMIN FOR ANTI-INFLAMMATORY, ANTI-CYTOKINE STORM, AND OTHER USES” (CHIANG MAI UNIVERSITY, priority 2009, published 2017).

System: influenza A (H1N1) virus-infected egg cells
Assay: Quantity of IL-1 released by influenza A (H1N1) virus-infected egg cells
Type: cell-based
Details: for quantity of IL-1 released: 24 hours, FIG. 5; for percentage of quantity of human IL-1 released relative to quantity of isolated egg cells (diluted 1:50): uninfected culture 1 = 100%, FIG. 6
Experimental: Experiments were conducted to evaluate the effects of particular phytochemical compositions provided by the present disclosure on quantity of IL-1 released by virus-infected cells. Virus-infected cells used for the experiments described in this example are influenza A (H1N1) virus-infected cells. More specifically, the virus-infected cells used for the experiments described in this example are influenza A (H1N1) virus-infected egg cells. The influenza A (H1N1) virus can be isolated from patients infected with the influenza A (H1N1) using standard techniques known to a person of ordinary skill in the art. In addition, isolation of cells (e.g., egg cells), and the infection of cells (e.g., isolated egg cells) can be performed using standard techniques or method known to a person of ordinary skill in the art. It is understood by a person having ordinary skill in the art that the influenza A (H1N1) virus-infected egg cells may be substituted for other viral-infected cells, or other cells found within the body, for instance, cells that that are involved in inflammatory responses within the body.
Six cultures of cells, i.e., culture 1 to culture 6, were prepared. The contents of each of cultures 1 to culture 6 are as follows: • (i) Culture 1: Control culture 1. Includes a predetermined volume of a sample of isolated egg cells that has been diluted in a ratio of 1:50; • (ii) Culture 2: Control culture 2. Includes the predetermined volume of the sample of isolated egg cells similar to that of culture 1 that have been infected with the influenza A (H1N1) virus diluted at a ratio of 1:7812500; • (iii) Culture 3: Control culture 3. Includes the predetermined volume of the sample of isolated egg cells similar to that of culture 1 and a volume of DMSO that has been infected with the influenza A (H1N1) virus diluted at a ratio of 1:7812500; • (iv) Culture 4: Includes the predetermined volume of the sample of isolated egg cells that have been infected with the influenza A (H1N1) virus similar to that of culture 2, and a volume of phytochemical composition providing sesamin at a concentration of 0.5 ug/ml; • (v) Culture 5: Includes the predetermined volume of the sample of isolated egg cells that have been infected with the influenza A (H1N1) virus similar to that of culture 2, and a volume of phytochemical composition providing sesamin at a concentration of 1.0 ug/ml; and • (vi) Culture 6: Includes the predetermined volume of the sample of isolated egg cells that have been infected with the influenza A (H1N1) virus similar to that of culture 2, and a volume of phytochemical composition providing sesamin at a concentration of 10.0 ug/ml.
In the experiments of example six, each of cultures 1 to 6 is made up to a final volume of approximately 200 μl in a well of a standard 96 well plate. It will be understood by a person of ordinary skill in the art that an alternative final volume (e.g., 100 μl) may also be used. The number or concentration of isolated egg cells used for each culture is approximately equal. For instance, the number of isolated egg cells used for each culture is approximately 2×10^5 (i.e., 200,000). It will be understood by a person of ordinary skill in the art that the number or concentration of isolated egg cells used for each of cultures 1 to 6 can be adjusted as required by varying the degree of dilution of the cultures (e.g., by increasing total volume of the culture by adding medium).
Each of cultures 1 to 6 was incubated at the same physical conditions for an equal length of time. More specifically, each culture was incubated at a temperature of 37° C. with 5% of carbon dioxide for 24 hours. The amount of IL-1 released from the isolated egg cells of each of cultures 1 to 6 was measured or determined using methods or techniques known to a person having ordinary skill in the relevant art.

c1cc2c(cc1[C@H]1OC[C@H]3[C@@H]1CO[C@@H]3c1ccc3c(c1)OCO3)OCO2 [sesamin]
quantity of IL-1 released (0.5 ug/ml sesamin (culture 4)): approximately 4 pg/ml | percentage of quantity of human IL-1 released relative to quantity of isolated egg cells (diluted 1:50) (0.5 ug/ml sesamin): approximately 22% | quantity of IL-1 released (1.0 ug/ml sesamin (culture 5)): approximately 3.5 pg/ml | percentage of quantity of human IL-1 released relative to quantity of isolated egg cells (diluted 1:50) (1.0 ug/ml sesamin): approximately 18% | quantity of IL-1 released (10.0 ug/ml sesamin (culture 6)): approximately 3 pg/ml | percentage of quantity of human IL-1 released relative to quantity of isolated egg cells (diluted 1:50) (10.0 ug/ml sesamin): approximately 16%
